{"source": "patent US20260130395A1", "about": "“Water Dispersible Botanical Compositions” (Aquila Black Limited, priority 2021, published 2026)", "test": "Stability of cannabinoid compounds and Vitamin E components in Beverage 1 (AB White) by LCMSMS", "assay_type": "physicochemical", "key": {"[1]": {"details": "AB White stored at 8° C., 570 days"}, "[2]": {"details": "AB White stored at 21-25° C., 570 days"}}, "method": "The stability of the plant-derived cannabinoid compounds and Vitamin E components of the beverage stored 8° C. and at room temperature (21-25° C.) were monitored, over a period of 570 days via Liquid Chromatography-tandem Mass Spectrometry [LCMSMS, Agilent 6590, C18, 3×50 mm, 2.7 m (Agilent InfinityLab Poroshell 120 EC-C18), Electrospray Ionization detector]. The LCMSMS was calibrated for 0-1000 ng/ml cannabinoids with the same resin material used in the preparation of the concentrates. At each time period, 100 ml of beverage was diluted with 10 ml of methanol and injected into the LCMSMS for analysis."}
{"compound": "CCCCCc1cc(O)c2c(c1)OC(C)(C)[C@@H]1CCC(C)=C[C@@H]21", "note": "[D9 THC, delta-9-tetrahydrocannabinol, reference compound]", "values": [{"measurement": "Stability of Plant-Derived Cannabinoid Compounds in AB White, 8° C.", "setting": "AB White stored at 8° C., 29 days", "value": 12.25, "unit": "µg/mL"}, {"measurement": "Stability of Plant-Derived Cannabinoid Compounds in AB White, 8° C.", "setting": "AB White stored at 8° C., 30 days", "value": 12.05, "unit": "µg/mL"}, {"measurement": "Stability of Plant-Derived Cannabinoid Compounds in AB White, 8° C.", "setting": "AB White stored at 8° C., 60 days", "value": 11.77, "unit": "µg/mL"}, {"measurement": "Stability of Plant-Derived Cannabinoid Compounds in AB White, 8° C.", "setting": "AB White stored at 8° C., 90 days", "value": 11.92, "unit": "µg/mL"}, {"measurement": "Stability of Plant-Derived Cannabinoid Compounds in AB White, 8° C.", "setting": "AB White stored at 8° C., 120 days", "value": 11.79, "unit": "µg/mL"}, {"measurement": "Stability of Plant-Derived Cannabinoid Compounds in AB White, 8° C.", "setting": "AB White stored at 8° C., 150 days", "value": 12.07, "unit": "µg/mL"}, {"measurement": "Stability of Plant-Derived Cannabinoid Compounds in AB White, 8° C.", "setting": "AB White stored at 8° C., 180 days", "value": 11.66, "unit": "µg/mL"}, {"measurement": "Stability of Plant-Derived Cannabinoid Compounds in AB White, 8° C.", "setting": "AB White stored at 8° C., 210 days", "value": 11.79, "unit": "µg/mL"}, {"measurement": "Stability of Plant-Derived Cannabinoid Compounds in AB White, 8° C.", "setting": "AB White stored at 8° C., 240 days", "value": 11.70, "unit": "µg/mL"}, {"measurement": "Stability of Plant-Derived Cannabinoid Compounds in AB White, 8° C.", "setting": "AB White stored at 8° C., 270 days", "value": 11.98, "unit": "µg/mL"}, {"measurement": "Stability of Plant-Derived Cannabinoid Compounds in AB White, 8° C.", "setting": "AB White stored at 8° C., 300 days", "value": 11.70, "unit": "µg/mL"}, {"measurement": "Stability of Plant-Derived Cannabinoid Compounds in AB White, 8° C.", "setting": "AB White stored at 8° C., 330 days", "value": 11.68, "unit": "µg/mL"}, {"measurement": "Stability of Plant-Derived Cannabinoid Compounds in AB White, 8° C.", "setting": "AB White stored at 8° C., 360 days", "value": 11.88, "unit": "µg/mL"}, {"measurement": "Stability of Plant-Derived Cannabinoid Compounds in AB White, 8° C.", "setting": "AB White stored at 8° C., 390 days", "value": 11.85, "unit": "µg/mL"}, {"measurement": "Stability of Plant-Derived Cannabinoid Compounds in AB White, 8° C.", "setting": "AB White stored at 8° C., 420 days", "value": 11.77, "unit": "µg/mL"}, {"measurement": "Stability of Plant-Derived Cannabinoid Compounds in AB White, 8° C.", "setting": "AB White stored at 8° C., 450 days", "value": 11.80, "unit": "µg/mL"}, {"measurement": "Stability of Plant-Derived Cannabinoid Compounds in AB White, 8° C.", "setting": "AB White stored at 8° C., 480 days", "value": 11.60, "unit": "µg/mL"}, {"measurement": "Stability of Plant-Derived Cannabinoid Compounds in AB White, 8° C.", "setting": "AB White stored at 8° C., 510 days", "value": 11.33, "unit": "µg/mL"}, {"measurement": "Stability of Plant-Derived Cannabinoid Compounds in AB White, 8° C.", "setting": "AB White stored at 8° C., 540 days", "value": 11.27, "unit": "µg/mL"}, {"measurement": "Stability of Plant-Derived Cannabinoid Compounds in AB White, 8° C.", "setting": "[1]", "value": 11.21, "unit": "µg/mL"}, {"measurement": "stability over the entire period (in words)", "setting": "[1]", "value": "high degree of stability"}, {"measurement": "Stability of Plant-Derived Cannabinoid Compounds in AB White, 21-25° C.", "setting": "AB White stored at 21-25° C., 0 days", "value": 12.2, "unit": "µg/mL"}, {"measurement": "Stability of Plant-Derived Cannabinoid Compounds in AB White, 21-25° C.", "setting": "AB White stored at 21-25° C., 1 days", "value": 11.8, "unit": "µg/mL"}, {"measurement": "Stability of Plant-Derived Cannabinoid Compounds in AB White, 21-25° C.", "setting": "AB White stored at 21-25° C., 2 days", "value": 12.0, "unit": "µg/mL"}, {"measurement": "Stability of Plant-Derived Cannabinoid Compounds in AB White, 21-25° C.", "setting": "AB White stored at 21-25° C., 3 days", "value": 11.9, "unit": "µg/mL"}, {"measurement": "Stability of Plant-Derived Cannabinoid Compounds in AB White, 21-25° C.", "setting": "AB White stored at 21-25° C., 5 days", "value": 12.1, "unit": "µg/mL"}, {"measurement": "Stability of Plant-Derived Cannabinoid Compounds in AB White, 21-25° C.", "setting": "AB White stored at 21-25° C., 8 days", "value": 12.3, "unit": "µg/mL"}, {"measurement": "Stability of Plant-Derived Cannabinoid Compounds in AB White, 21-25° C.", "setting": "AB White stored at 21-25° C., 9 days", "value": 11.8, "unit": "µg/mL"}, {"measurement": "Stability of Plant-Derived Cannabinoid Compounds in AB White, 21-25° C.", "setting": "AB White stored at 21-25° C., 10 days", "value": 11.7, "unit": "µg/mL"}, {"measurement": "Stability of Plant-Derived Cannabinoid Compounds in AB White, 21-25° C.", "setting": "AB White stored at 21-25° C., 11 days", "value": 12.1, "unit": "µg/mL"}, {"measurement": "Stability of Plant-Derived Cannabinoid Compounds in AB White, 21-25° C.", "setting": "AB White stored at 21-25° C., 12 days", "value": 11.9, "unit": "µg/mL"}, {"measurement": "Stability of Plant-Derived Cannabinoid Compounds in AB White, 21-25° C.", "setting": "AB White stored at 21-25° C., 15 days", "value": 12.1, "unit": "µg/mL"}, {"measurement": "Stability of Plant-Derived Cannabinoid Compounds in AB White, 21-25° C.", "setting": "AB White stored at 21-25° C., 16 days", "value": 12.1, "unit": "µg/mL"}, {"measurement": "Stability of Plant-Derived Cannabinoid Compounds in AB White, 21-25° C.", "setting": "AB White stored at 21-25° C., 17 days", "value": 11.9, "unit": "µg/mL"}, {"measurement": "Stability of Plant-Derived Cannabinoid Compounds in AB White, 21-25° C.", "setting": "AB White stored at 21-25° C., 18 days", "value": 11.8, "unit": "µg/mL"}, {"measurement": "Stability of Plant-Derived Cannabinoid Compounds in AB White, 21-25° C.", "setting": "AB White stored at 21-25° C., 19 days", "value": 12.3, "unit": "µg/mL"}, {"measurement": "Stability of Plant-Derived Cannabinoid Compounds in AB White, 21-25° C.", "setting": "AB White stored at 21-25° C., 22 days", "value": 11.9, "unit": "µg/mL"}, {"measurement": "Stability of Plant-Derived Cannabinoid Compounds in AB White, 21-25° C.", "setting": "AB White stored at 21-25° C., 23 days", "value": 12.0, "unit": "µg/mL"}, {"measurement": "Stability of Plant-Derived Cannabinoid Compounds in AB White, 21-25° C.", "setting": "AB White stored at 21-25° C., 24 days", "value": 12.1, "unit": "µg/mL"}, {"measurement": "Stability of Plant-Derived Cannabinoid Compounds in AB White, 21-25° C.", "setting": "AB White stored at 21-25° C., 25 days", "value": 12.3, "unit": "µg/mL"}, {"measurement": "Stability of Plant-Derived Cannabinoid Compounds in AB White, 21-25° C.", "setting": "AB White stored at 21-25° C., 26 days", "value": 12.1, "unit": "µg/mL"}, {"measurement": "Stability of Plant-Derived Cannabinoid Compounds in AB White, 21-25° C.", "setting": "AB White stored at 21-25° C., 29 days", "value": 11.9, "unit": "µg/mL"}, {"measurement": "Stability of Plant-Derived Cannabinoid Compounds in AB White, 21-25° C.", "setting": "AB White stored at 21-25° C., 30 days", "value": 11.9, "unit": "µg/mL"}, {"measurement": "Stability of Plant-Derived Cannabinoid Compounds in AB White, 21-25° C.", "setting": "AB White stored at 21-25° C., 60 days", "value": 11.9, "unit": "µg/mL"}, {"measurement": "Stability of Plant-Derived Cannabinoid Compounds in AB White, 21-25° C.", "setting": "AB White stored at 21-25° C., 90 days", "value": 12.0, "unit": "µg/mL"}, {"measurement": "Stability of Plant-Derived Cannabinoid Compounds in AB White, 21-25° C.", "setting": "AB White stored at 21-25° C., 120 days", "value": 11.7, "unit": "µg/mL"}, {"measurement": "Stability of Plant-Derived Cannabinoid Compounds in AB White, 21-25° C.", "setting": "AB White stored at 21-25° C., 150 days", "value": 11.7, "unit": "µg/mL"}, {"measurement": "Stability of Plant-Derived Cannabinoid Compounds in AB White, 21-25° C.", "setting": "AB White stored at 21-25° C., 180 days", "value": 11.9, "unit": "µg/mL"}, {"measurement": "Stability of Plant-Derived Cannabinoid Compounds in AB White, 21-25° C.", "setting": "AB White stored at 21-25° C., 210 days", "value": 11.4, "unit": "µg/mL"}, {"measurement": "Stability of Plant-Derived Cannabinoid Compounds in AB White, 21-25° C.", "setting": "AB White stored at 21-25° C., 240 days", "value": 11.7, "unit": "µg/mL"}, {"measurement": "Stability of Plant-Derived Cannabinoid Compounds in AB White, 21-25° C.", "setting": "AB White stored at 21-25° C., 270 days", "value": 11.9, "unit": "µg/mL"}, {"measurement": "Stability of Plant-Derived Cannabinoid Compounds in AB White, 21-25° C.", "setting": "AB White stored at 21-25° C., 300 days", "value": 12.0, "unit": "µg/mL"}, {"measurement": "Stability of Plant-Derived Cannabinoid Compounds in AB White, 21-25° C.", "setting": "AB White stored at 21-25° C., 330 days", "value": 11.4, "unit": "µg/mL"}, {"measurement": "Stability of Plant-Derived Cannabinoid Compounds in AB White, 21-25° C.", "setting": "AB White stored at 21-25° C., 360 days", "value": 11.7, "unit": "µg/mL"}, {"measurement": "Stability of Plant-Derived Cannabinoid Compounds in AB White, 21-25° C.", "setting": "AB White stored at 21-25° C., 390 days", "value": 11.4, "unit": "µg/mL"}, {"measurement": "Stability of Plant-Derived Cannabinoid Compounds in AB White, 21-25° C.", "setting": "AB White stored at 21-25° C., 420 days", "value": 11.7, "unit": "µg/mL"}, {"measurement": "Stability of Plant-Derived Cannabinoid Compounds in AB White, 21-25° C.", "setting": "AB White stored at 21-25° C., 450 days", "value": 11.7, "unit": "µg/mL"}, {"measurement": "Stability of Plant-Derived Cannabinoid Compounds in AB White, 21-25° C.", "setting": "AB White stored at 21-25° C., 480 days", "value": 11.2, "unit": "µg/mL"}, {"measurement": "Stability of Plant-Derived Cannabinoid Compounds in AB White, 21-25° C.", "setting": "AB White stored at 21-25° C., 510 days", "value": 11.2, "unit": "µg/mL"}, {"measurement": "Stability of Plant-Derived Cannabinoid Compounds in AB White, 21-25° C.", "setting": "AB White stored at 21-25° C., 540 days", "value": 11.2, "unit": "µg/mL"}, {"measurement": "Stability of Plant-Derived Cannabinoid Compounds in AB White, 21-25° C.", "setting": "[2]", "value": 11.2, "unit": "µg/mL"}, {"measurement": "stability over the entire period (in words)", "setting": "[2]", "value": "high degree of stability"}]}
